Experiments:
human TRPA1 ion channel = human TRPA1 ion channel (Homo sapiens (Human), UniProt O75762); experiment: Assay A: TRPA1 assay (FLIPR calcium, AITC agonism, HEK293 over-expressing human TRPA1); type: cell-based; details: HEK293 over-expressing human TRPA1, AITC 10 μM, FLIPRtetra; read-out: hTRPA1 IC50
Procedure: A human HEK293 cell line over-expressing the human TRPA1 ion channel (Perkin Elmer, Product No. AX-004-PCL) was used as a test system for compound efficacy and potency. Compound activity was determined by measuring the effect of compounds on intracellular calcium concentration induced by AITC (Allylisothiocyanat) agonism in a FLIPRtetra system (Molecular Devices).
The cells were obtained as frozen cells in cryo-vials and stored until use at −150° C. Cells were grown in culture medium (MEM/EBSS medium with 10% FCS and 0.4 mg/ML Geneticin). […] For sub-culturing cells were detached from flasks by Versene. At the day before the assay, cells were detached, washed twice with medium (MEM/EBSS medium with 10% FCS) and 20000 cells in 20 μl/well were seeded to Poly D-Lysin biocoated 384-well plates (black, clear bottom, Cat. 356697) from Corning. Plates were incubated for 24 hours at 37° C./5% CO2 before use in the assay.
The test compounds were dissolved in 100% DMSO at a concentration of 10 mM and in a first step diluted in DMSO to a concentration of 5 mM, followed by serial dilution steps in 100% DMSO. Dilution factor and number of dilution steps may vary according to needs. Typically 8 different concentrations by 1:5 dilutions were prepared, further intermediate dilutions (1:20) of the substances were carried out with HBSS/HEPES buffer (1×HEPES, Cat. 14065 from Gibco, 20 mM HEPES, Cat. 83264 from SIGMA, 0.1% BSA Cat. 11926 from Invitrogen, pH 7,4
At the assay day cells were washed 3× with assay puffer, 20 μL buffer remained in the wells after washing. 10 μL Ca6 kit (Cat. R8191 MolecularDevices) loading buffer in HBSS/HEPES was added to the cells and the plates were incubated with lid for 120 minutes at […]. 10 μL of compound or controls in HBSS/HEPES buffer/5% DMSO from the intermediate dilution plate were carefully added to the wells. […] Finally 10 μL of the agonist AITC 50 μM dissolved in HBSS/HEPES buffer/0.05% DMSO (final concentration 10 μM) was added to the wells followed by an additional read on the FLIPRtetra device for 10 minutes. The area under the signal curve (AUC) after AITC addition was used for IC50/% inhibition calculations
Data Evaluation and Calculation:
Each assay microtiter plate contained wells with vehicle (1% DMSO) controls instead of compound as controls for AITC induced luminescence (100% CTL; high controls) and wells with vehicle controls without AITC as controls for non-specific changes in luminescence (0% CTL; low controls).
The analysis of the data was performed by the calculation of the area under signal curve of the individual wells. Based on this values the % value for the measurement of each substance concentration was calculated (AUC(sample)−AUC(low))*100/(AUC(high)−AUC(low)) using MegaLab software (in house development). The IC50 values were calculated from the % control values using MegaLab software. Calculation: [y=(a−d)/(1+(x/c)^b)+d], a=low value, d=high value; x=cone M; c=IC50 M; b=hill; y=% ctrl

[1] = Assay B: Microsomal clearance; type: in vitro ADME, human; details: pooled liver microsomes, 1 μM test compound, 37° C.
Procedure: Assay B: Microsomal Clearance:
The metabolic degradation of the test compound is assayed at 37° C. with pooled liver microsomes. The final incubation volume of 100 μl per time point contains TRIS buffer pH 7.6 at RT (0.1 M), magnesium chloride (5 mM), microsomal protein (1 mg/ml) and the test compound at a final concentration of 1 μM.
Following a short preincubation period at 37° C., the reactions are initiated by addition of beta-nicotinamide adenine dinucleotide phosphate, reduced form (NADPH, 1 mM) and terminated by transferring an aliquot into solvent after different time points (0, 5, 15, 30, 60 min). Additionally, the NADPH-independent degradation is monitored in incubations without NADPH, terminated at the last time point. The [%] remaining test compound after NADPH independent incubation is reflected by the parameter c(control) (metabolic stability). The quenched incubations are pelleted by centrifugation (10000 g, 5 min).
An aliquot of the supernatant is assayed by LC-MS/MS for the amount of parent compound. The half-life (t½ INVITRO) is determined by the slope of the semilogarithmic plot of the concentration-time profile.
The intrinsic clearance (CL_[…]) is calculated by considering the amount of protein in the incubation: CL_[…] [μl/min/mg protein]=(Ln 2/(half-life [min]*protein content [mg/ml]))*1000 CL_[…]_INVIVO [ml/min/kg]=(CL_[…] [μL/min/mg protein]×MPPGL [mg protein/g liver]×liver factor [g/kg body weight])/1000 Qh [%]=CL [ml/min/kg]/hepatic blood flow [ml/min/kg])
(§1) Hepatocellularity, human: 120×10e6 cells/g liver
(§2) Liver factor, human: 25.7 g/kg bodyweight
(§3) Blood flow, human: 21 ml/(min×kg)

[2] = Assay C: Hepatocyte clearance; type: in vitro ADME, human; details: hepatocyte suspension, 1 μM test compound
Procedure: Assay C: Hepatocyte Clearance
The metabolic degradation of the test compound is assayed in a hepatocyte suspension. Hepatocytes (cryopreserved) are incubated in. Dulbecco's modified eagle medium (supplemented with 3.5 μg glucagon/500 mL, 2.5 mg insulin/500 mL and 3.75 mg/500 mL hydrocortison) containing 5% or 50% species serum.
Following a 30 min preincubation in an incubator (37° C., 10% CO2) 5 μl of test compound solution (80 μM; from 2 mM in DMSO stock solution diluted 1:25 with medium) are added into 395 μl hepatocyte suspension (cell density in the range 0.25-5 Mio cells/mL depending on the species, typically 1 Mio cells/mL; final concentration of test compound 1 μM, final DMSO concentration 0.05%).
The cells are incubated for six hours (incubator, orbital shaker) and samples (25 μl) are taken at 0, 0.5, 1, 2, 4 and 6 hours. Samples are transferred into acetonitrile and pelleted by centrifugation (5 min). The supernatant is transferred to a new 96-deepwell plate, evaporated under nitrogen and resuspended.
Decline of parent compound is analyzed by HPLC-MS/MS
CLint is calculated as follows CL_[…]=Dose/AUC=(C0/CD)/(AUD+clast/k)×1000/60. CO: initial concentration in the incubation [μM], CD: cell density of vital cells [10e6 cells/mL], AUD: area under the data [μM×h], clast: concentration of last data point [μM], k: slope of the regression line for parent decline [h-1].
The calculated in vitro hepatic intrinsic clearance can be scaled up to the intrinsic in vivo hepatic Clearance and used to predict hepatic in vivo blood clearance (CL) by the use of a liver model (well stirred model). CL_[…]_INVIVO [ml/min/kg]=(CL_[…] [μL/min/10e6 cells]×hepatocellularity [10e6 cells/g liver]×liver factor [g/kg body weight])/1000 CL [ml/min/kg]=CL_[…]_INVIVO [ml/min/kg]×hepatic blood flow [ml/min/kg]/(CL_[…]_INVIVO [ml/min/kg]+hepatic blood flow [ml/min/kg]) Qh [%]=CL [ml/min/kg]/hepatic blood flow [ml/min/kg])
as §1, §2, §3

[3] = Assay D: Metabolism in human hepatocytes in vitro; type: in vitro ADME; details: primary human hepatocytes, 10 μM
Procedure: Assay D: Metabolism in Human Hepatocytes In Vitro
The metabolic pathway of a test compound is investigated using primary human hepatocytes in suspension.
Following a 30 min preincubation in a cell culture incubator (37° C., 10% CO2), test compound solution is spiked into the hepatocyte suspension to obtain a final cell density of 1.0*10^6 to 4.0*10^6 cells/ml (depending on the metabolic turnover rate of the compound observed with primary human hepatocytes), a final test compound concentration of 10 μM, and a final DMSO concentration of 0.05%.
The cells are incubated for six hours in a cell culture incubator on a horizontal shaker, and samples are removed from the incubation after 0, 0.5, 1, 2, 4 or 6 hours, depending on the metabolic turnover rate. Samples are quenched with acetonitrile and pelleted by centrifugation. The supernatant is transferred to a 96-deepwell plate, evaporated under nitrogen and resuspended prior to bioanalysis by liquid chromatography-high resolution mass spectrometry for identification of putative metabolites.

Chain of human TRPA1 ion channel (O75762 whole entry): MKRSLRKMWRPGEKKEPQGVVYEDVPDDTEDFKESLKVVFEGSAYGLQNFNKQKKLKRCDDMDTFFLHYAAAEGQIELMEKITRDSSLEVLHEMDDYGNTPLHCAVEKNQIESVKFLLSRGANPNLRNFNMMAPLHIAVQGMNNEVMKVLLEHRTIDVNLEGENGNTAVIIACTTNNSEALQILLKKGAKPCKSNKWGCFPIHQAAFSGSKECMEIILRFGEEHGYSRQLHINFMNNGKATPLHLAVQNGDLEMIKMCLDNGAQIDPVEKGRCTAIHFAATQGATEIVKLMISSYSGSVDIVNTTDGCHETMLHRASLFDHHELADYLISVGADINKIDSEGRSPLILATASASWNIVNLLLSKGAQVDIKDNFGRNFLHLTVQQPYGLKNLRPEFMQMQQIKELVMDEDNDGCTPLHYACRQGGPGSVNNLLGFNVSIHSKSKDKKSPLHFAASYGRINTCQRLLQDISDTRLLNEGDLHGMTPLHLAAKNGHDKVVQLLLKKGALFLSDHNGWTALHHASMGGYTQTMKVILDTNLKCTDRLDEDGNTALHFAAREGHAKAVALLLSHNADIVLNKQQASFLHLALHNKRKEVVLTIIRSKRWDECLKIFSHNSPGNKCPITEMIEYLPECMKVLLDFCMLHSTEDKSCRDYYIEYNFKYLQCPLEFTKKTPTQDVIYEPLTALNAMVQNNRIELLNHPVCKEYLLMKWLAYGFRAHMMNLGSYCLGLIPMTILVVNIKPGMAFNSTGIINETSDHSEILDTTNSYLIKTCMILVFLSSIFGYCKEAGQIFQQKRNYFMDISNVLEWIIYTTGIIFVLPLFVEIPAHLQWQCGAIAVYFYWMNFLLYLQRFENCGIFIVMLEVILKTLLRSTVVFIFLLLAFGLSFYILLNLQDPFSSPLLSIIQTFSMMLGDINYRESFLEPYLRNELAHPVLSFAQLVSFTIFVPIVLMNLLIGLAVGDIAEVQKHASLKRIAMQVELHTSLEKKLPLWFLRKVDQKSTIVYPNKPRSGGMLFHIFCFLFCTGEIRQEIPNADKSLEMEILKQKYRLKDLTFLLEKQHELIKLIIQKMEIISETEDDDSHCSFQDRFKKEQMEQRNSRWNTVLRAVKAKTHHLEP

IC50 (human TRPA1 ion channel): 11 nM
human LM [% Qh] [1]: <23 % Qh
human Hepatocytes [% Qh] [2]: 7 % Qh
Major metabolite observed: Mechanism ([3]; Metabolite M1): Oxygenation
Major metabolite observed: Mechanism ([3]; Metabolite M2): Dehydrogenation
Major metabolite observed: Mechanism ([3]; Metabolite M3): Glucuronidation
SMILES: O=C1NCCc2c1sc1ncn(Cc3nnn(C[C@H](O)c4ccc(Cl)cc4)n3)c(=O)c21 [Example 6]
